Among the data in ChEMBL document CHEMBL4138296, “Nonacidic Chemotype Possessing N-Acylated Piperidine Moiety as Potent Farnesoid X Receptor (FXR) Antagonists” (ACS Med Chem Lett, 2018) are inhibition and Activity values, retold here.

Activity calls are given as the source filed them. The rule behind the calls is not given here.

The test system of assay [1] is 3T3-L1. Kind of assay: Antiadipogenic activity in mouse 3T3L1 cells assessed as inhibition of CDCA-induced triglyceride accumulation after 6 days. In kind it is functional, cell-based.
For assay [2], the target named is T1, Oxysterols receptor LXR-beta (Homo sapiens) (UniProt P55055).
T1 sequence (whole entry): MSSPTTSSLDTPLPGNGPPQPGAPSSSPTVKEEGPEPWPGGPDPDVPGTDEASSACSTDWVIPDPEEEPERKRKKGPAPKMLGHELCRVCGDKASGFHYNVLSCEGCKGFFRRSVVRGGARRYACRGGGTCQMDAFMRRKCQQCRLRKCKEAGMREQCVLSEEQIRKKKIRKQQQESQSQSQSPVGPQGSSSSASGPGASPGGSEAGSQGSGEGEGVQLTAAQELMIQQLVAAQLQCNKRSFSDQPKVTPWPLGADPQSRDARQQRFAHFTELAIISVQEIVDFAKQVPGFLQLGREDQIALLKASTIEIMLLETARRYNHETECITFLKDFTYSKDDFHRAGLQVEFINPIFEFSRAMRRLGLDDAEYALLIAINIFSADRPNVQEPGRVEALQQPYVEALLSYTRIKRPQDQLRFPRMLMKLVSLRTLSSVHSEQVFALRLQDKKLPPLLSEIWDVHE
The assay can be described thus: Antagonist activity at LXRbeta (unknown origin) assessed as inhibition of TO901317-induced response at 1 uM by luciferase reporter gene assay. In general terms: In a reporter assay the amount or activity of a reporter protein is the signal.

Assay [3] has as its target T2, Peroxisome proliferator-activated receptor delta (Homo sapiens) (UniProt Q03181).
T2 sequence (whole entry): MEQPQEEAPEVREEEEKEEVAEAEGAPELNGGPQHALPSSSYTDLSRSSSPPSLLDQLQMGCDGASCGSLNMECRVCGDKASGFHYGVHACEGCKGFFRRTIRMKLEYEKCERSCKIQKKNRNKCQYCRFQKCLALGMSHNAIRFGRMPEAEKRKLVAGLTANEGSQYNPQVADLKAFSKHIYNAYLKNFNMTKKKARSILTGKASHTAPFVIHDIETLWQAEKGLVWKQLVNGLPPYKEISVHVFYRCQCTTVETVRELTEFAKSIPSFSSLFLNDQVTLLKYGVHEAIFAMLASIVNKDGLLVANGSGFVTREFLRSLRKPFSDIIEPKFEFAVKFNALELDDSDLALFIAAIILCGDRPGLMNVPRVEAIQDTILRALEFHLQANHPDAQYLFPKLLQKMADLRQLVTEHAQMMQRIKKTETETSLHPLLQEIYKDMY
The assay can be described thus: Antagonist activity at PPARdelta (unknown origin) assessed as inhibition of GW501516-induced response at 1 uM by luciferase reporter gene assay.

Assay [4] addresses T3, Retinoic acid receptor RXR-alpha (Homo sapiens) (UniProt P19793).
T3 sequence (whole entry): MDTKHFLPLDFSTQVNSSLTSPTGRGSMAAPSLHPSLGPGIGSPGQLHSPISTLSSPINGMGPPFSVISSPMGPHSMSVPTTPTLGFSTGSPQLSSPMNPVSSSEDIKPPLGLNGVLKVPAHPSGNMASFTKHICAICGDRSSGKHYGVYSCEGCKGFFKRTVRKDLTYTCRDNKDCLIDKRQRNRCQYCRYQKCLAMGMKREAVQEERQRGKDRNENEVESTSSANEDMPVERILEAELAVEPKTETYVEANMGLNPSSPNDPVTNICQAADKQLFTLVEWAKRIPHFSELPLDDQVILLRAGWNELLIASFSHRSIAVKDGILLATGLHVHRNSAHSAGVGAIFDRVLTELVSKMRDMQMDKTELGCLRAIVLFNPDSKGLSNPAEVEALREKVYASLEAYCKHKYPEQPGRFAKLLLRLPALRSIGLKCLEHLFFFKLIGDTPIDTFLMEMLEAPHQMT
Kind of assay: Antagonist activity at human RXRalpha expressed in HEK293T cells assessed as inhibition of 9-cis-retinoic acid-induced response at 1 uM after 24 hrs by luciferase reporter gene assay. In kind it is cell-based.

Assay [5] deals with T4, Oxysterols receptor LXR-alpha (Homo sapiens) (UniProt Q13133).
T4 sequence (whole entry): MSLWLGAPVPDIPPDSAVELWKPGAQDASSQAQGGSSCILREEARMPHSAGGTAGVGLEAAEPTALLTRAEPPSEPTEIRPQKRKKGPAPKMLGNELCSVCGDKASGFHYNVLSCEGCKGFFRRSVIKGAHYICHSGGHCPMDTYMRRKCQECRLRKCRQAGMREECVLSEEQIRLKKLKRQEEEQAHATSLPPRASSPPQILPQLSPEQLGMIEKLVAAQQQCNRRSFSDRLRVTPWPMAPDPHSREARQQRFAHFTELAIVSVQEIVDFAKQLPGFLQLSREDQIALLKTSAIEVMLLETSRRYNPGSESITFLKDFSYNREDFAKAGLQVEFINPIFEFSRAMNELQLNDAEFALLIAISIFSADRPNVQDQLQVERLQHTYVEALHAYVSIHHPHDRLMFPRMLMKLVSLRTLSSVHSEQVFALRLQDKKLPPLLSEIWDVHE
Kind of assay: Antagonist activity at LXRalpha (unknown origin) assessed as inhibition of TO901317-induced response at 1 uM by luciferase reporter gene assay.

Assay [6] deals with T5, G-protein coupled bile acid receptor 1 (Homo sapiens) (UniProt Q8TDU6).
T5 sequence (whole entry): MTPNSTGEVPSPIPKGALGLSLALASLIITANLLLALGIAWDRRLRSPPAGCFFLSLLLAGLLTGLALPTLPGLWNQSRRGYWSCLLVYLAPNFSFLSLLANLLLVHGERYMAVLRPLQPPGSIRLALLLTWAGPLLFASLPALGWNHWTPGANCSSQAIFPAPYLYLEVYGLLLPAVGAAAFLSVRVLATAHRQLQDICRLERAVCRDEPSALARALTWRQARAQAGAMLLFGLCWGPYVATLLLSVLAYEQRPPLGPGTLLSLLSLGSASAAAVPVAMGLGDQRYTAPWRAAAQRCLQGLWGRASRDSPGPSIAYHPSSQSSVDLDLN
The assay can be described thus: Agonist activity at TGR5 (unknown origin) at 1 uM by luciferase reporter gene assay. The assay is classed as functional.

For assay [7], the system named is 3T3-L1. The assay can be described thus: Antiadipogenic activity in mouse 3T3L1 cells assessed as inhibition of CDCA-induced intracellular lipid droplets after 6 days by Oil Red O staining based assay. The assay is classed as functional, cell-based.

For the compound `Cc1ccc2nc([C@H](CC3CCN(C(=O)C(C)C)CC3)N3C(=O)CN(c4ccc(Oc5ccccc5)cc4)C3=O)n(C)c2c1`, the inhibition result in the assay on 3T3-L1 [1] and in the assay on 3T3-L1 [7] was “Dose-dependent effect” each time. In addition, the inhibition entry in assay [2], in assay [3], in assay [4] and in assay [5] was “inactive” each time. Also, the outcome in assay [6] was inactive.
